Values joined by “and” are separate entries in the source; they are usually repeats but may differ in a detail not shown here. Equal entries are not always repeated. Inconclusive results and toxic doses are left out.

For this experiment, the system named is L1210 leukemia ip in BDF1 mice, survival T/C. Nature of the experiment: NCI In Vivo Anticancer Drug Screen. Data for tumor model L1210 Leukemia (intraperitoneal) in B6D2F1 (BDF1) mice. The note with it: endpoint: mean survival time, higher = longer survival. The essentials: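 Each compound was tested against a transplantable tumor grown in mice. The endpoint was survival, with treated animals benchmarked against vehicle controls as a simple ratio.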

[1] abbreviates: dose: 100.0 mg/kg/injection, schedule: Q01DX001 (ip), vehicle: saline.
Where [2] appears, read: dose: 400.0 mg/kg/injection, schedule: Q01DX001 (ip), vehicle: saline.
Setting [3] is: dose: 50.0 mg/kg/injection, schedule: Q01DX009 (ip), vehicle: saline.
Where [4] appears, read: dose: 100.0 mg/kg/injection, schedule: Q01DX009 (ip), vehicle: saline.
[5] abbreviates: dose: 200.0 mg/kg/injection, schedule: Q04DX003 (ip), vehicle: saline with Tween-80.
Setting [6] is: dose: 100.0 mg/kg/injection, schedule: Q01DX009 (ip), vehicle: Klucel (hydroxypropylcellulose) (HPC).
Setting [7] is: dose: 200.0 mg/kg/injection, schedule: Q01DX009 (ip), vehicle: Klucel (hydroxypropylcellulose) (HPC).
Where [8] appears, read: dose: 100.0 mg/kg/injection, schedule: Q04DX003 (ip), vehicle: Klucel (hydroxypropylcellulose) (HPC).
Setting [9] is: dose: 200.0 mg/kg/injection, schedule: Q04DX003 (ip), vehicle: Klucel (hydroxypropylcellulose) (HPC).
The mark [10] stands for this setting: dose: 200.0 mg/kg/injection, schedule: Q01DX001 (ip), vehicle: saline.
[11] abbreviates: dose: 100.0 mg/kg/injection, schedule: Q04DX003 (ip), vehicle: saline.
The mark [12] stands for this setting: dose: 200.0 mg/kg/injection, schedule: Q04DX003 (ip), vehicle: saline.

Consider `CC[C@@]1(O)C(=O)OCc2c1cc1n(c2=O)Cc2c-1nc1ccccc1c2Cl`, for which the T/C was 117 % of control under setting [1] and 88 % of control under setting [2].

With `O=C(CCNc1ccccc1)c1ccccc1`, the T/C is 95 % of control under setting [3]; 95 % of control under setting [4]; 105 % of control (dose: 100.0 mg/kg/injection, schedule: Q04DX002 (ip), vehicle: saline); 108 % of control (dose: 200.0 mg/kg/injection, schedule: Q04DX002 (ip), vehicle: saline).

Take `CCOC(=O)c1cnc(NN)nc1Nc1cc(Cl)cc(Cl)c1`: the T/C under setting [5] is 90 % of control.

Turning to `C=CC[P+](CC)(c1ccccc1)c1ccccc1`, under “dose: 3.13 mg/kg/injection, schedule: Q01DX009 (ip), vehicle: saline”, the T/C was 97 % of control.

With `Clc1nc(Cl)c2c(n1)NCCN2`, the T/C is 106 % of control (dose: 50.0 mg/kg/injection, schedule: Q01DX009 (ip), vehicle: Klucel (hydroxypropylcellulose) (HPC)) and 103 % of control under setting [6].

For `C=C(C)C1(CC(C)C)C(=O)NC(=S)NC1=O`, the T/C was 100 % of control (dose: 9.5 mg/kg/injection, schedule: Q01DX001 (ip), vehicle: other); 96 % of control (dose: 19.0 mg/kg/injection, schedule: Q01DX001 (ip), vehicle: other); 96 % of control (dose: 38.0 mg/kg/injection, schedule: Q01DX001 (ip), vehicle: other).

As for `Cc1ccc(Cl)cc1NC(=O)Oc1cc(C)c(Cl)c(C)c1`, the T/C was 94 % of control under setting [6] and 96 % of control under setting [7].

In the case of `NC(=O)C1C2C=CC(O2)C1C(=O)O` (stereo unspecified), the T/C (dose: 12.5 mg/kg/injection, schedule: Q04DX002 (ip), vehicle: saline) is 111 % of control; the T/C (dose: 25.0 mg/kg/injection, schedule: Q04DX002 (ip), vehicle: saline) was 97 % of control; the T/C (dose: 50.0 mg/kg/injection, schedule: Q04DX002 (ip), vehicle: saline) was 103 % of control.

Consider `COc1ccc2c(c1)CN(S(=O)(=O)c1ccc(C)cc1)c1ccccc1C2=O`, for which the T/C is 89 % of control under setting [4]; 96 % of control (dose: 200.0 mg/kg/injection, schedule: Q01DX009 (ip), vehicle: saline); 89 % of control (dose: 400.0 mg/kg/injection, schedule: Q01DX009 (ip), vehicle: saline).

For the molecule `CCCCCCCCCCCC(=O)NC(=S)Nc1cccc(F)c1`, the T/C runs as follows: under setting [8], 95 % of control; under setting [9], 90 % of control.

As for `Cc1sc2ccccc2[n+]1CCCCS(=O)(=O)O`, the T/C reads like this: under setting [1], 92 % of control; under setting [10], 97 % of control; under setting [2], 97 % of control.

`Cc1c2ccncc2c(C)c2c1[nH]c1ccc(O)cc12`: the T/C (dose: 3.1 mg/kg/injection, schedule: Q01DX009 (ip), vehicle: saline with Tween-80) is 158 % of control; the T/C (dose: 6.25 mg/kg/injection, schedule: Q01DX009 (ip), vehicle: saline with Tween-80) is 100 % of control; the T/C (dose: 6.3 mg/kg/injection, schedule: Q04DX003 (ip), vehicle: saline with Tween-80) was 122 % of control; the T/C (dose: 12.5 mg/kg/injection, schedule: Q01DX001 (oral), vehicle: saline with Tween-80) was 104 % of control; the T/C (dose: 12.5 mg/kg/injection, schedule: Q01DX009 (ip), vehicle: saline with Tween-80) is 98 % of control; the T/C (dose: 25.0 mg/kg/injection, schedule: Q01DX001 (oral), vehicle: saline with Tween-80) was 106 % of control. The T/C (dose: 50.0 mg/kg/injection, schedule: Q01DX001 (oral), vehicle: saline with Tween-80) was 104 % of control; the T/C (dose: 50.0 mg/kg/injection, schedule: Q04DX003 (ip), vehicle: saline with Tween-80) was 98 % of control; the T/C (dose: 100.0 mg/kg/injection, schedule: Q01DX001 (oral), vehicle: saline with Tween-80) was 114 % of control; the T/C (dose: 200.0 mg/kg/injection, schedule: Q01DX001 (oral), vehicle: saline with Tween-80) was 112 % of control.

As for `Nc1nc2ccccc2nc1N`, the T/C was 96 % of control under setting [3]; 105 % of control (dose: 50.0 mg/kg/injection, schedule: Q04DX003 (ip), vehicle: saline); 104 % of control under setting [4]; 101 % of control under setting [11]; 108 % of control under setting [12].

Consider `C=CCn1c(=O)n(CC=C)c(=O)n(CC=C)c1=O`, for which the T/C is, setting by setting: under setting [1], 108 % of control; (dose: 100.0 mg/kg/injection, schedule: Q04DX003 (ip), vehicle: carboxymethylcellulose (CMC)) 106 % of control; under setting [10], 102 % of control; (dose: 200.0 mg/kg/injection, schedule: Q04DX003 (ip), vehicle: carboxymethylcellulose (CMC)) 92 % of control; under setting [2], 104 % of control; (dose: 400.0 mg/kg/injection, schedule: Q04DX003 (ip), vehicle: carboxymethylcellulose (CMC)) 95 % of control.

Regarding `C(=N/N(Cc1ccccc1)Cc1ccccc1)/c1ccccc1`, the T/C is, setting by setting: under setting [1], 94 % of control; under setting [10], 103 % of control; under setting [2], 101 % of control.

On to `Cc1cc(C)c(NC(=O)c2cc(C(=O)O)c(C(=O)Nc3c(C)cc(C)cc3C)cc2C(=O)O)c(C)c1`, for which the T/C reads like this: (dose: 50.0 mg/kg/injection, schedule: Q01DX009 (ip), vehicle: saline with Tween-80) 119 % of control and 91 % of control; (dose: 100.0 mg/kg/injection, schedule: Q01DX001 (ip), vehicle: saline with Tween-80) 104 % of control; (dose: 100.0 mg/kg/injection, schedule: Q04DX002 (ip), vehicle: saline with Tween-80) 104 % of control and 110 % of control; (dose: 100.0 mg/kg/injection, schedule: Q04DX003 (ip), vehicle: saline with Tween-80) 107 % of control; (dose: 200.0 mg/kg/injection, schedule: Q01DX001 (ip), vehicle: saline with Tween-80) 98 % of control; (dose: 200.0 mg/kg/injection, schedule: Q04DX002 (ip), vehicle: saline with Tween-80) 94 % of control and 113 % of control. Further, the T/C is, setting by setting: under setting [5], 100 % of control; (dose: 400.0 mg/kg/injection, schedule: Q01DX001 (ip), vehicle: saline with Tween-80) 102 % of control; (dose: 400.0 mg/kg/injection, schedule: Q01DX009 (ip), vehicle: saline with Tween-80) 87 % of control and 89 % of control; (dose: 400.0 mg/kg/injection, schedule: Q04DX002 (ip), vehicle: saline with Tween-80) 100 % of control; (dose: 400.0 mg/kg/injection, schedule: Q04DX003 (ip), vehicle: saline with Tween-80) 96 % of control.

With `CCCCOc1ccc(/C=N/NC(=O)CNC(=O)Nc2cccc(C(F)(F)F)c2)cc1`, the T/C is, setting by setting: (dose: 100.0 mg/kg/injection, schedule: Q01DX009 (ip), vehicle: gum acacia) 86 % of control; (dose: 200.0 mg/kg/injection, schedule: Q01DX009 (ip), vehicle: gum acacia) 93 % of control; (dose: 400.0 mg/kg/injection, schedule: Q01DX009 (ip), vehicle: gum acacia) 96 % of control.

Take `CNc1nc(Cl)cc2nc(Cl)cn12`: the T/C by setting is: under setting [1], 94 % of control; under setting [10], 96 % of control; under setting [2], 96 % of control.

Take `CN(C)c1ccc2nc3ccc(=O)cc-3sc2c1`: the T/C was 88 % of control (dose: 50.0 mg/kg/injection, schedule: Q04DX002 (ip), vehicle: Klucel (hydroxypropylcellulose) (HPC)); 95 % of control (dose: 100.0 mg/kg/injection, schedule: Q04DX002 (ip), vehicle: Klucel (hydroxypropylcellulose) (HPC)); 92 % of control (dose: 200.0 mg/kg/injection, schedule: Q04DX002 (ip), vehicle: Klucel (hydroxypropylcellulose) (HPC)); 95 % of control (dose: 400.0 mg/kg/injection, schedule: Q04DX002 (ip), vehicle: Klucel (hydroxypropylcellulose) (HPC)).

For the molecule `NC(N)=Nc1ccccc1` (tested in a mixture with another compound), the T/C by setting is: under setting [11], 100 % of control; under setting [12], 100 % of control.

As for `NS(=O)(=O)c1ccc(NC(=O)Nc2ccccc2)cc1`, the T/C runs as follows: under setting [6], 92 % of control; under setting [7], 97 % of control.

With `COc1ccc(OCC2CO2)cc1` (stereo unspecified), the T/C by setting is: under setting [6], 103 % of control; under setting [8], 100 % of control; under setting [7], 103 % of control; under setting [9], 96 % of control; (dose: 400.0 mg/kg/injection, schedule: Q01DX009 (ip), vehicle: Klucel (hydroxypropylcellulose) (HPC)) 102 % of control; (dose: 400.0 mg/kg/injection, schedule: Q04DX003 (ip), vehicle: Klucel (hydroxypropylcellulose) (HPC)) 102 % of control.

These data come from PubChem BioAssay AID248 (DTP/NCI, 2004).
